{"source": "patent US20240352402A1", "about": "“ENGINEERED BACTERIA FOR BIOSYNTHESIS OF PEPTIDE-BASED QUORUM SENSING INHIBITORS” (Wisconsin Alumni Research Foundation, priority 2023, published 2024)", "tested_on": "S. aureus agr quorum sensing system (agr specificity groups I, II, III and IV)", "experiment": "Staphylococcus aureus agr reporter (antagonism) assay with pDB59 YFP reporter strains", "format": "cell-based", "details": "high concentrations, WT supernatant as vehicle control", "description": "Supernatant samples were lyophilized in a FreeZone Freeze Dryer (Labconco). Fluorescence (EX 500 nm/EM 540 nm) and OD600 were read on a Synergy™ 2 plater reader (BioTek). Data was analyzed using Prism 9 software (GraphPad by Dotmatics).\nIn both P. megaterium and B. subtilis strains produced in Example 1, AIP production was induced by diluting overnight cultures 1:100 in LB containing 1% xylose. After 8 hours the cultures were centrifuged, and the supernatant was purified with a 0.22 μm filter. The supernatant was then lyophilized and reconstituted in sterile milli-Q water at 10× the original concentration.\nGroups I-IV S. aureus strains containing the pDB59 plasmid were used to conduct agr antagonism assays. Assays were conducted as previously described,^1 with the following adjustments: 10×WT P. megaterium or B. subtilis supernatant was used as a vehicle control instead of DMSO and 20 μl of sample/vehicle control and 180 μl of 1:50 overnight S. aureus in brain heart infusion (BHI) growth medium was added to each well for inducible strains P. megaterium (FIG. 2) and B. subtilis (FIG. 3) from Example 1 and constitutive strain B. subtilis (FIG. 5) from Example 2."}
{"substance": "AIP-III D4A", "values": [{"measurement": "inhibition of agr activity in reporter assay", "setting": "lyophilized B. subtilis supernatant (10x), n=9, FIG. 3", "result": "inhibit agr"}, {"measurement": "inhibition of agr activity in reporter assay", "setting": "lyophilized P. megaterium supernatant (10x), n=3, FIG. 2", "result": "inhibit agr"}]}
